# Peptide text beside a SMILES is read from it.
# Key:
# S. aureus TISTR 517 [1] = assay: Broth microdilution MIC/MBC (CLSI); assay type: cell-based, Staphylococcus aureus; details: broth microdilution, CAMHB, 37 °C 24 h, triplicate
# Description: The broth microdilution method was performed following the guidelines of the Clinical and Laboratory Standards Institute (CLSI). Test strains including S. aureus TISTR 517 and MRSA strains 142, 1096, and 2468 were cultured on MH agar at 37 °C for 18 h. A single colony from each strain was suspended in 0.85% NaCl until it reached a turbidity of 0.1 OD at 625 nm (1 × 10^8 CFU/mL). The bacterial cells were then diluted to 5 × 10^6 CFU/mL using cation-adjusted Mueller–Hinton broth (CAMHB). Ten microliters of the cell suspension were added to each well of a 96-well plate to make the total volume in each well 100 µL. The AMP was added to achieve final concentrations ranging from 0.125 to 64 µg/mL. Vancomycin and cefoxitin were used as positive controls, while antibiotic-free samples were used as negative controls. The plate was incubated at 37 °C for 24 h. Each experiment was performed in triplicate. The MIC was determined as the lowest concentration that inhibited visible bacterial growth. For the MBC, 100 µL from each dilution was spread on MH agar and incubated at 37 °C for 24 h. The MBC was the lowest concentration at which no bacterial colonies appeared on the agar plates.
# MRSA strain 2468 [2] = assay: Time-kill assay; assay type: cell-based, Staphylococcus aureus; details: for bacterial reduction rate: triplicate
# Description: (§1) The time–kill assay of FN33 AMP was conducted by measuring bacterial viability (log CFU/mL) at different time points. […] In the untreated group, bacterial growth increased over time, with a growth rate of 0.292 log CFU/h for S. aureus TISTR 517 and 0.2884 log CFU/h for MRSA strain 2468. […] However, complete eradication of S. aureus TISTR 517 was not achieved at either concentration, even after 24 h of treatment. […] The bactericidal effect was confirmed by complete eradication within 20 h of treatment. […] The killing rate against MRSA strain 2468 was faster than that observed for S. aureus TISTR 517 at all concentrations.
# (§2) Error bars represent the standard deviation of triplicate experiments.
# S. aureus TISTR 517 [3] = assay: Time-kill assay; assay type: cell-based, Staphylococcus aureus; details: for bacterial reduction rate: triplicate
# Description: as §1, §2
# MRSA strain 2468 [4] = assay: Scanning electron microscopy of treated cells; assay type: cell-based, Staphylococcus aureus; details: 1× MIC, 16 h / 18 h (figure legend), 30,000× magnification
# Source text: (§3) SEM was used to examine morphological alterations in the bacterial cells. […] This appearance reflected their natural cellular structure.
# (§4) Figure 5 SEM images captured at 30,000× magnification. […] The non-treatment condition served as a negative control.
# S. aureus TISTR 517 [5] = assay: Scanning electron microscopy of treated cells; assay type: cell-based, Staphylococcus aureus; details: 1× MIC, 16 h / 18 h (figure legend), 30,000× magnification
# Source text: as §3, §4
# MRSA strain 2468 [6] = assay: Sytox Green uptake assay (membrane permeabilization); assay type: cell-based, Staphylococcus aureus; details: 10 µM Sytox Green, ex 504/em 523 nm, over 24 h
# Description: (§5) The Sytox Green uptake assay was conducted to assess membrane permeabilization associated with loss of membrane integrity. The fluorescence would be detected from a Sytox Green–DNA complex. […] Triton X-100 (0.125–2%) and an untreated sample were used as positive and negative controls, respectively. Fluorescence intensities were recorded 5 min before sample addition across all groups to ensure cell integrity prior to the experiment. […] For MRSA strain 2468, fluorescence intensity was higher than the positive control at the time of sample addition and remained concentration-dependent.
# (§6) The membrane permeabilization of bacterial cells was determined by the increase in fluorescence intensity caused by the Sytox Green–DNA complex. The fluorescence intensity was observed over time for 24 h. The inset graphs show the expanded view of the fluorescence baseline before sample addition and the fluorescence intensity during the initial 60 min after sample addition. The increase in fluorescence intensity over the entire treatment period was expressed as fold changes, comparing different sample concentrations to the untreated condition of S. aureus TISTR 517 (c) and MRSA strain 2468 (d).
# (§7) The Sytox Green uptake assay was performed to evaluate the disruption of cell membrane integrity induced by the AMP [67]. An overnight culture (16 h) of MRSA strain 2468 was harvested and washed three times with sterile PBS (pH 7.4) supplemented with 0.2% CAMHB as a diluent. The cell suspension was then diluted with the same diluent until the OD at 625 nm was 0.1 (1 × 10^8 CFU/mL). An aliquot (100 µL) of the diluted cells was added to each well, followed by incubation with 10 µM Sytox Green (Thermo Fisher Scientific Inc., Waltham, MA, USA) in the dark for 15 min. […] Triton X-100 (AppliChem GmbH, Darmstadt, Germany) was used as a positive control and prepared at final concentrations ranging from 0.125% to 2%. These concentrations were used to compare the level of cell membrane permeability induced by the AMP. Membrane permeability was assessed by measuring fluorescence intensity using a microplate reader (Thermo Scientific Inc., Waltham, MA, USA) at excitation and emission wavelengths of 504 nm and 523 nm, respectively, over a 24 h period following AMP addition. Significant differences in fluorescence intensity (p-value < 0.05) were analyzed using two-way ANOVA and Tukey’s post hoc test for multiple comparisons between treated and untreated conditions.
# S. aureus TISTR 517 [7] = assay: as above; assay type: cell-based, Staphylococcus aureus; details: 10 µM Sytox Green, ex 504/em 523 nm, over 24 h
# Description: as §5, §6, §7
# egg albumin = assay: Albumin denaturation assay (in vitro anti-inflammatory); assay type: biochemical, hen; details: PBS pH 7.2, 37 °C 15 min then 70 °C 5 min, OD 660 nm, mean ± SD, n = 3
# Description: The reaction mixture consisted of 25 μL of egg albumin (derived from fresh hen eggs), 350 μL of PBS (pH 7.2, 0.1 M), and 250 μL of AMP or PBS (used as a reference). The mixtures were pre-incubated at 37 °C for 15 min, followed by denaturation at 70 °C for 5 min. After a 5 min cooling period on ice, the optical density (OD) at 660 nm was measured using a spectrophotometer. […] The percentage inhibition of albumin denaturation was calculated using the following equation:Inhibition of albumin denaturation (%) = [1 − (Absorbancesample/Absorbancecontrol)] × 100
smiles,measurement,setting,value
CC(C)C[C@H](NC(=O)[C@H](CC(=O)O)NC(=O)[C@H](CS)NC(=O)[C@H](Cc1c[nH]cn1)NC(=O)[C@H](CS)NC(=O)[C@@H]1CCCN1C(=O)[C@@H](NC(=O)[C@H](CC(C)C)NC(=O)[C@H](CS)NC(=O)CNC(=O)[C@H](Cc1c[nH]c2ccccc12)NC(=O)[C@@H](NC(=O)[C@H](CC(=O)O)NC(=O)[C@@H](NC(=O)CNC(=O)[C@H](CS)NC(=O)CNC(=O)CNC(=O)[C@@H](N)CCC(=O)O)C(C)C)[C@@H](C)O)[C@@H](C)O)C(=O)N[C@@H](Cc1ccccc1)C(=O)N[C@@H](CS)C(=O)N[C@H](C(=O)N[C@H](C(=O)O)[C@@H](C)O)[C@@H](C)O [FN33 AMP] (H-EGGCGVDTWGCLTPCHCDLFCTT-OH),MIC,S. aureus TISTR 517 [1],16 µg/mL
same,bacterial reduction rate,MRSA strain 2468 [2]; 1× MIC,0.1519 log CFU/h
same,time to eradication (no detectable bacterial counts),MRSA strain 2468 [2]; 2× MIC,≤ 20 h
same,bacterial reduction rate,MRSA strain 2468 [2]; 2× MIC,0.2498 log CFU/h
same,time to eradication (no detectable bacterial counts),MRSA strain 2468 [2]; 4× MIC,≤ 12 h
same,bacterial reduction rate,MRSA strain 2468 [2]; 4× MIC,0.4508 log CFU/h
same,bacterial reduction rate,"S. aureus TISTR 517 [3]; 1× MIC, up to 24 h",0.0496 log CFU/h
same,bacterial reduction rate,"S. aureus TISTR 517 [3]; 2× MIC, up to 24 h",0.1322 log CFU/h
same,time to complete eradication,S. aureus TISTR 517 [3]; 4× MIC,≤ 20 h
same,bacterial reduction rate,S. aureus TISTR 517 [3]; 4× MIC,0.2704 log CFU/h
same,morphological changes under SEM,MRSA strain 2468 [4],greater number of completely lysed cells
same,morphological changes under SEM,S. aureus TISTR 517 [5],dented and rough surface with fewer lysed cells
same,average fluorescence increase vs untreated group,MRSA strain 2468 [6]; 0.25× MIC,5.87 ± 0.72 fold
same,average fluorescence increase vs untreated group,MRSA strain 2468 [6]; 0.5× MIC,7.44 ± 0.77 fold
same,average fluorescence increase vs untreated group,MRSA strain 2468 [6]; 1× MIC,7.91 ± 0.48 fold
same,average fluorescence increase vs untreated group,MRSA strain 2468 [6]; 2× MIC,8.49 ± 0.25 fold
same,average fluorescence increase vs untreated group,MRSA strain 2468 [6]; 4× MIC,9.13 ± 0.46 fold
same,average increase in fluorescence intensity vs untreated group,S. aureus TISTR 517 [7]; 0.25× MIC,1.88 ± 0.83 fold
same,average increase in fluorescence intensity vs untreated group,S. aureus TISTR 517 [7]; 0.5× MIC,1.89 ± 0.91 fold
same,average increase in fluorescence intensity vs untreated group,S. aureus TISTR 517 [7]; 1× MIC,1.98 ± 0.92 fold
same,average increase in fluorescence intensity vs untreated group,S. aureus TISTR 517 [7]; 2× MIC,3.54 ± 1.64 fold
same,average increase in fluorescence intensity vs untreated group,S. aureus TISTR 517 [7]; 4× MIC,8.49 ± 4.31 fold
same,% Inhibition of Albumin Denaturation,egg albumin; 50 µg/mL,"4.85 ± 0.93 *^,† %"
same,% Inhibition of Albumin Denaturation,egg albumin; 100 µg/mL,"17.75 ± 0.97 *^,† %"
same,% Inhibition of Albumin Denaturation,egg albumin; 250 µg/mL,34.39 ± 1.82 %
same,% Inhibition of Albumin Denaturation,egg albumin; 500 µg/mL,57.16 ± 1.06 %

# Source: publication PMC12113356, “Novel Anti-MRSA Peptide from Mangrove-Derived Virgibacillus chiguensis FN33 Supported by Genomics and Molecular Dynamics” (Marine Drugs, 2025)
